#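 Test compounds were applied to cells in 96-well plates for 48 hours at 5 doses. GI50 = concentration required for 50% inhibition of growth. TGI denotes the concentration required for complete inhibition of growth.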
# Key:
# Test in all cases: growth of human tumour cells (NCI), 48 h
# HCT-15 colon = tested on: HCT-15 colon
# HOP-62 NSCLC = tested on: HOP-62 NSCLC
# OVCAR-4 ovarian = tested on: OVCAR-4 ovarian
# NCI-H522 lung = tested on: NCI-H522 lung
# TK-10 renal = tested on: TK-10 renal
# HL-60(TB) leukemia = tested on: HL-60(TB) leukemia
# U251 CNS = tested on: U251 CNS
# HCT-116 colon = tested on: HCT-116 colon
# HCC-2998 colon = tested on: HCC-2998 colon
# PC-3 prostate = tested on: PC-3 prostate
# MDA-MB-435 = tested on: MDA-MB-435
# COLO 205 colon = tested on: COLO 205 colon
# MOLT-4 leukemia = tested on: MOLT-4 leukemia
# RPMI-8226 leukemia = tested on: RPMI-8226 leukemia
# IGROV1 ovarian = tested on: IGROV1 ovarian
# T-47D breast = tested on: T-47D breast
# MDA-MB-231 breast = tested on: MDA-MB-231 breast
# BT-549 breast = tested on: BT-549 breast
# DU-145 prostate = tested on: DU-145 prostate
# SK-MEL-5 melanoma = tested on: SK-MEL-5 melanoma
# SK-OV-3 ovarian = tested on: SK-OV-3 ovarian
# 786-0 renal = tested on: 786-0 renal
# SF-539 CNS = tested on: SF-539 CNS
# A498 renal = tested on: A498 renal
# NCI-H460 lung = tested on: NCI-H460 lung
# MALME-3M melanoma = tested on: MALME-3M melanoma
# UACC-257 melanoma = tested on: UACC-257 melanoma
# K-562 leukemia = tested on: K-562 leukemia
# OVCAR-8 ovarian = tested on: OVCAR-8 ovarian
compound,measurement,setting,value
O=C(Nc1ccc(I)cc1F)c1cc(I)ccc1O,GI50,HCT-15 colon,452 nM
same,TGI,HCT-15 colon,19700 nM
same,GI50,HOP-62 NSCLC,815 nM
same,TGI,HOP-62 NSCLC,3400 nM
same,GI50,OVCAR-4 ovarian,798 nM
same,TGI,OVCAR-4 ovarian,> 100000 nM
same,GI50,NCI-H522 lung,327 nM
same,TGI,NCI-H522 lung,21800 nM
same,GI50,TK-10 renal,1490 nM
same,TGI,TK-10 renal,> 64500 nM
same,GI50,HL-60(TB) leukemia,517 nM
same,TGI,HL-60(TB) leukemia,1660 nM
same,GI50,U251 CNS,661 nM
same,TGI,U251 CNS,> 100000 nM
same,GI50,HCT-116 colon,768 nM
same,TGI,HCT-116 colon,3350 nM
same,GI50,HCC-2998 colon,2630 nM
same,TGI,HCC-2998 colon,15100 nM
same,GI50,PC-3 prostate,1140 nM
same,TGI,PC-3 prostate,9760 nM
same,GI50,MDA-MB-435,723 nM
same,TGI,MDA-MB-435,7900 nM
same,GI50,COLO 205 colon,7170 nM
same,TGI,COLO 205 colon,24000 nM
same,GI50,MOLT-4 leukemia,965 nM
same,TGI,MOLT-4 leukemia,3500 nM
same,GI50,RPMI-8226 leukemia,375 nM
same,TGI,RPMI-8226 leukemia,1640 nM
same,GI50,IGROV1 ovarian,611 nM
same,TGI,IGROV1 ovarian,> 100000 nM
same,GI50,T-47D breast,649 nM
same,TGI,T-47D breast,2940 nM
same,GI50,MDA-MB-231 breast,639 nM
same,TGI,MDA-MB-231 breast,2640 nM
same,GI50,BT-549 breast,548 nM
same,TGI,BT-549 breast,2480 nM
same,GI50,DU-145 prostate,873 nM
same,TGI,DU-145 prostate,> 100000 nM
same,GI50,SK-MEL-5 melanoma,285 nM
same,TGI,SK-MEL-5 melanoma,807 nM
same,GI50,SK-OV-3 ovarian,2560 nM
same,TGI,SK-OV-3 ovarian,> 100000 nM
same,GI50,786-0 renal,1030 nM
same,TGI,786-0 renal,9510 nM
same,GI50,SF-539 CNS,651 nM
same,TGI,SF-539 CNS,16200 nM
same,GI50,A498 renal,324 nM
same,TGI,A498 renal,1240 nM
same,GI50,NCI-H460 lung,506 nM
same,TGI,NCI-H460 lung,22400 nM
same,GI50,MALME-3M melanoma,320 nM
same,TGI,MALME-3M melanoma,1520 nM
same,GI50,UACC-257 melanoma,730 nM
same,TGI,UACC-257 melanoma,2600 nM
same,GI50,K-562 leukemia,434 nM
same,TGI,K-562 leukemia,> 100000 nM
same,GI50,OVCAR-8 ovarian,802 nM

# Reference: PubChem BioAssay (NCI)
